Experimental data from patent US12458605B2, “Lipid nanoparticle” (National University Corporation Hokkaido University, priority 2020, dated 2025).
Where “and” joins values, the source holds several entries; their conditions need not be identical. Equal values may be shown once.

Experiments:
[1] = Nucleic acid encapsulation rate by Ribogreen (section II); assay type: physicochemical; conditions: for % mRNA encapsulation: NlucmRNA-loaded LNP, 60:10:40:1; for % pDNA encapsulation: pFluc-loaded LNP
Experimental: The encapsulation rates of siRNA, mRNA, and pDNA of lipid nanoparticles were measured using Ribogreen (manufactured by life technologies).

[2] = Average particle size (ζ-Average) and PDI by dynamic light scattering (Zetasizer Nano ZSP); assay type: physicochemical
Summary of the method: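 Dynamic light scattering of the particles in PBS(−) gave both the polydispersity index and the ζ-Average mean size.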

F7 [3] = assay: In vivo F7 knockdown, plasma F7 enzyme activity (BIOPHEN FVII), Balb/c mice; conditions: i.v. 0.025 mg siRNA/kg, plasma at 24 hours; for F7 enzyme activity (%): untreated mice as 100%; for F7 enzyme activity (Ratio using MC3 as 1): relative plasma F7 activity of MC3 LNP as 1
Summary of the method: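 Plasma factor VII activity was read 24 h after a single intravenous 0.025 mg siRNA/kg dose of siRNA-loaded lipid nanoparticles in 5-week-old female Balb/c mice. Activity is relative to untreated animals (100%) and normalised to the MC3 nanoparticle benchmark (=1).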

[4] = Average particle size and PDI by dynamic light scattering (Zetasizer Nano ZS); assay type: physicochemical
Experimental: (§1) The average particle size (number-average value) and PDI in PBS(−) and zeta potential in 10 mM HEPES buffer solution (pH 7.4) of lipid nanoparticles were measured using “Zetasizer Nano ZS ZEN3600”, an analyzer utilizing dynamic light scattering (manufactured by Malvern).

[5] = pKa of lipid nanoparticles by TNS (section II); assay type: physicochemical; conditions: F7siRNA-loaded LNP; compared with LNP of straight-chain CL4H6 or CL15H6 (FIG. 1)
Experimental: The pKa of lipid nanoparticles was measured using p-toluidino-2-naphthalenesulfonic acid (TNS). First, TNS (final concentration: 0.75 μM) and lipid nanoparticles (final concentration: […]) were mixed in buffer solution adjusted to each pH. The fluorescence intensity of the prepared mixture was measured with a microplate reader. The highest and lowest values among the measured values were taken as 100% and 0% charge rates respectively, and the pH indicating 50% charge rate was calculated as pKa.

F7 [6] = assay: In vivo F7 knockdown, plasma F7 enzyme activity, ICR mice; conditions: i.v. 0.003-0.1 mg siRNA/kg, plasma at 24 hours, compared with LNP of CL4H6 or CL15H6 (FIG. 2)
Experimental: Then, each prepared F7siRNA-loaded lipid nanoparticles were administered to ICR mice (4 weeks old, female) and in vivo F7 knockdown activity was examined.
Specifically, each F7siRNA-loaded lipid nanoparticles were intravenously administered to ICR mice at 0.003-0.1 mg siRNA/kg, and plasma F7 enzyme activity at 24 hours later was measured. Relative plasma F7 enzyme activity (%) of mice administered each F7siRNA-loaded lipid nanoparticles was calculated using plasma F7 enzyme activity of untreated mice as 100%. FIG. 2(B) is the results of intravenous administration of each F7siRNA-loaded lipid nanoparticle at 0.1 mg siRNA/kg.

[7] = Storage stability of FlucmRNA-loaded LNP at −80, 5, 25 and 40° C.; assay type: physicochemical; conditions: for period for which quality remained good, −80° C.: maximum storage period 1 week; for quality at production (storage stability criteria): criteria: PDI 0.2 or less, encapsulation 80% or more
Summary of the method: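 Reported period is how long all three criteria hold: encapsulation rate at 80% or more, PDI of 0.2 or less, and mean particle size within +/−20 nm of day-of-preparation value. Particle size, PDI and nucleic acid encapsulation were tracked over time at storage temperatures of −80, 5, 25 and 40° C.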

[8] = siRNA/mRNA encapsulation rate by Ribogreen reagent (section IV); assay type: physicochemical; conditions: for % siRNA encapsulation: F7siRNA-loaded LNP, 50:10:38.5:1.5, N/P ratio 6; for % mRNA encapsulation: FlucmRNA-loaded LNP, 50:10:38.5:1.5
Summary of the method: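 Encapsulation % was calculated as (total − surface nucleic acid)/total × 100, with both values measured by RiboGreen fluorescence at 485/528 nm. Total RNA was read on LNPs lysed with 1% Triton X-100 at 1.2 μg/mL, and surface RNA on intact LNPs at 8 μg/mL in TE buffer. Concentrations came from a 0-2.5 μg/mL Triton-containing calibration curve.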

[9] = Zeta potential in 10 mM HEPES buffer (pH 7.4); assay type: physicochemical
Experimental: as §1

liver = assay: In vivo Fluc activity of FlucmRNA-loaded LNP by in vivo imaging, liver; conditions: Balb/c mice, FlucmRNA-loaded LNP i.v. 0.1 mg mRNA/kg, 6 hours
Summary of the method: (§2)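 Read-out is average radiance (p/s/cm2/sr, about 560 nm) from whole-animal imaging of liver and spleen 6 h post-dose, after tail-vein luciferin at 1.5 mg/mouse. Dosing was intravenous, 0.1 mg mRNA/kg, in 7-week-old female Balb/c mice.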

spleen = assay: In vivo Fluc activity of FlucmRNA-loaded LNP by in vivo imaging, spleen; conditions: Balb/c mice, FlucmRNA-loaded LNP i.v. 0.1 mg mRNA/kg, 6 hours
Summary of the method: as §2

[10] = F7siRNA-loaded LNP, 50:10:38.5:1.5, N/P ratio 6
[11] = FlucmRNA-loaded LNP, lipid:DSPC:cholesterol:DMG-PEG2K 50:10:38.5:1.5
[12] = NlucmRNA-loaded LNP, 60:10:40:1
[13] = NlucmRNA-loaded LNP, lipid:DSPC:cholesterol:PEG-DMG 60:10:40:1
[14] = pFluc-loaded LNP, 50:10:40:1.5, N/P ratio 6
[15] = pFluc-loaded LNP, 50:10:40:1.5, N/P ratio 9
[16] = FlucmRNA-loaded LNP, 50:10:38.5:1.5

SMILES	% mRNA encapsulation [1]	% pDNA encapsulation ([1]; N/P ratio 6)	% pDNA encapsulation ([1]; N/P ratio 9)	PDI [2, 10]	ζ-Average (nm) [2, 10]	ζ-Average (nm) [2, 11]	PdI [4, 12]	ζ-Average (nm) [4, 13]	ζ-Average (nm) [4, 14]	ζ-Average (nm) [4, 15]	PdI ([4]; pFluc-loaded LNP, N/P ratio 6)	PdI ([4]; pFluc-loaded LNP, N/P ratio 9)	period for which quality remained good, −80° C. [7]	period for which quality remained good, 5° C. ([7]; maximum storage period 5 weeks)	period for which quality remained good, 25° C. ([7]; maximum storage period 5 weeks)	% siRNA encapsulation [8]	% mRNA encapsulation [8]	PDI [2, 16]	Fluc Activity in liver (liver)	Fluc Activity in spleen (spleen)	other results
CCCCCCCC/C=C\CCCCCCCC(=O)OCCCCCCC(O)(CCCCCCOC(=O)CCCCCCC/C=C\CCCCCCCC)CCCCN(CCC)CCC [CL4H6, 7-(4-(dipropylamino)butyl)-7-hydroxytridecane-1,13-diyl dioleate, reference compound]	77.6%	41.5%	70 ± 5.2%	0.102	68.86 nm	71.28 nm	0.139	113.4 nm	105.6 nm	113.9 ± 4.2 nm	0.14	0.2 ± 0.03	0 week	0 week weeks	1 week weeks	96.1%	80.1%	0.072	1.06E+07 Avg Radiance [p/s/cm2/sr]	2.10E+06 Avg Radiance [p/s/cm2/sr]	F7 enzyme activity (%) (F7 [3]): 47.2%; period for which quality remained good, 40° C. (days) ([7]; maximum storage period 5 weeks): 0 day days; ζ-potential (mV) [9, 12]: −1.23 mV; ζ-potential (mV) ([9]; pFluc-loaded LNP, N/P ratio 6): −0.57 mV; ζ-potential (mV) ([9]; pFluc-loaded LNP, N/P ratio 9): −0.4 ± 0.4 mV
CCCCCCCCCCCCCCCC(=O)OCCCCCCC(O)(CCCCCCOC(=O)CCCCCCCCCCCCCCC)CCCCOC(=O)C1CCN(C)CC1 [CL15F 16-0]				0.238	109.6 nm	195.90 nm										101.0%	100.1%	0.234	1.97E+05 Avg Radiance [p/s/cm2/sr]	4.59E+05 Avg Radiance [p/s/cm2/sr]	F7 enzyme activity (Ratio using MC3 as 1) (F7 [3]): 1.48; quality at production (storage stability criteria) [7]: Does not meet the criteria for “good” at production
CCCCCCCCCCCCCCC(C)C(=O)OCCCCCCC(O)(CCCCCCOC(=O)C(C)CCCCCCCCCCCCCC)CCCCOC(=O)C1CCN(C)CC1 (stereo not shown) [CL15F 16-1]				0.088	122.5 nm	187.70 nm							0 week	0 weeks	0 weeks	99.0%	94.0%	0.182	2.18E+05 Avg Radiance [p/s/cm2/sr]	1.27E+06 Avg Radiance [p/s/cm2/sr]	F7 enzyme activity (Ratio using MC3 as 1) (F7 [3]): 1.37; period for which quality remained good, 40° C. (weeks) ([7]; maximum storage period 5 weeks): 0 weeks

Now from value to compound, other results behind:

% mRNA encapsulation [1]	% pDNA encapsulation ([1]; N/P ratio 6)	% pDNA encapsulation ([1]; N/P ratio 9)	PDI [2, 10]	ζ-Average (nm) [2, 10]	ζ-Average (nm) [2, 11]	PdI [4, 12]	ζ-Average (nm) [4, 13]	ζ-Average (nm) [4, 14]	ζ-Average (nm) [4, 15]	PdI ([4]; pFluc-loaded LNP, N/P ratio 6)	PdI ([4]; pFluc-loaded LNP, N/P ratio 9)	period for which quality remained good, −80° C. [7]	period for which quality remained good, 5° C. ([7]; maximum storage period 5 weeks)	period for which quality remained good, 25° C. ([7]; maximum storage period 5 weeks)	% siRNA encapsulation [8]	% mRNA encapsulation [8]	PDI [2, 16]	SMILES	Fluc Activity in liver (liver)	Fluc Activity in spleen (spleen)	other results
90%	97.1%	94.8 ± 3.3%	0.014	92.27 nm	82.66 nm and 88.07 nm	0.157	127.2 nm	79.91 nm	91.3 ± 11.2 nm	0.08	0.19 ± 0.03	1 week	5 weeks	5 weeks	99.9%	99.6% and 99.4%		CCCCCCCCC(CCCCCC)C(=O)OCCCCCCC(O)(CCCCCCOC(=O)C(CCCCCC)CCCCCCCC)CCCCN(CCC)CCC (stereo not shown) [CL4F6, 7-(4-(dipropylamino)butyl)-7-hydroxytridecane-1,13-diyl bis(2-hexyldecanoate)]			F7 enzyme activity (%) (F7 [3]): 6.8%; pKa of lipid nanoparticle, compared [5]: lower pKa; in vivo F7 knockdown activity, compared (F7 [6]): equivalent in vivo F7 knockdown activity; period for which quality remained good, 40° C. (weeks) ([7]; maximum storage period 5 weeks): 5 weeks; ζ-potential (mV) [9, 12]: −3.72 mV; ζ-potential (mV) ([9]; pFluc-loaded LNP, N/P ratio 6): −5.17 mV; ζ-potential (mV) ([9]; pFluc-loaded LNP, N/P ratio 9): −1.7 ± 0.5 mV
90.5%	72.4%	81.9 ± 3^ %	0.142	123.50 nm	180.90 nm	0.495	94.34 nm	121.7 nm	149.9 ± 9.8 nm	0.08	0.11 ± 0.01				100.2%	83.8%	0.238	CCCCCCCC/C=C\CCCCCCCC(=O)OCCCCCCC(O)(CCCCCCOC(=O)CCCCCCC/C=C\CCCCCCCC)CCCCOC(=O)C1CCN(C)CC1 [CL15H6, 7-hydroxy-7-(4-((1-methylpiperidine-4-carbonyl)oxy)butyl)tridecane-1,13-diyl dioleate, reference compound]	1.17E+05 Avg Radiance [p/s/cm2/sr]	6.17E+05 Avg Radiance [p/s/cm2/sr]	F7 enzyme activity (Ratio using MC3 as 1) (F7 [3]): 1.99; quality at production (storage stability criteria) [7]: Does not meet the criteria for “good” at production; ζ-potential (mV) [9, 12]: 0.123 mV; ζ-potential (mV) ([9]; pFluc-loaded LNP, N/P ratio 6): 0.367 mV; ζ-potential (mV) ([9]; pFluc-loaded LNP, N/P ratio 9): 0.9 ± 0.9 mV
